Consider 16 compounds from patent US10752587B2, “Homobispiperidinyl derivatives as liver X receptor beta agonists, compositions and their use” (Merck Sharp & Dohme Corp., priority 2015, dated 2020).

The target in assay [1] is T1, glutathione-S-transferase (GST) tagged LXRbeta LBD (ligand binding domain) (Homo sapiens, UniProt P55055).
T1 construct: purchased Invitrogen pv4658.pps
T1 sequence (P55055 222-460 limits assumed): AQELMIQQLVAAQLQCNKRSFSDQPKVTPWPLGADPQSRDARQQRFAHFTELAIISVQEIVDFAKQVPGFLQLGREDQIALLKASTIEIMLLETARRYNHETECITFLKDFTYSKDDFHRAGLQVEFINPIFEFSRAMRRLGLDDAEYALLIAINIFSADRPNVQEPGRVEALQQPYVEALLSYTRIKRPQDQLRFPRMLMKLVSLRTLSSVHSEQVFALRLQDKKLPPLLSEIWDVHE
Description: LanthaScreen TR-FRET Liver X Receptor Coactivator Assay, co-activator recruitment to LXRbeta LBD. Format: biochemical. The conditions noted are these: for Emax: read-out: LXR beta Activity @ max dose (%); for EC50: potency (Inflection Point, IP), co-activator recruitment to LXRbeta LBD, in relation to T0901317. Summed up: (§1)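 Readout is time-resolved FRET between a terbium anti-GST antibody bound to the LBD and a fluorescein-tagged coactivator peptide recruited on ligand binding. Plates were incubated at room temperature before reading. Potency (IP) and efficacy (Emax) are referenced to T0901317.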

Assay [2] has as its target T2, glutathione-S-transferase (GST) tagged LXRalpha LBD (ligand binding domain) (Homo sapiens, UniProt Q13133).
T2 construct: purchased Invitrogen pv4655
T2 sequence (Q13133 209-447 limits assumed): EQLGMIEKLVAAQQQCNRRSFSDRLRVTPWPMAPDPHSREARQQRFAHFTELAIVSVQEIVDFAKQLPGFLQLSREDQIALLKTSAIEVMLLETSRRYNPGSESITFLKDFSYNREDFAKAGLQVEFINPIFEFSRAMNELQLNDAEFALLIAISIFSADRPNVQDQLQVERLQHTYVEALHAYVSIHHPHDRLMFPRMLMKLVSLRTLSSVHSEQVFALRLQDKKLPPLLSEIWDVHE
Nature of the assay: LanthaScreen TR-FRET Liver X Receptor Coactivator Assay, co-activator recruitment to LXRalpha LBD. The conditions noted are these: for Emax: read-out: LXR alpha Activity @ max dose (%); for EC50 / LXR alpha IP (nM): potency (Inflection Point, IP), co-activator recruitment to LXRalpha LBD, in relation to T0901317; for EC50: read-out: LXR alpha IP. It is filed as biochemical. The procedure, abridged: as §1
For orientation: Time-resolved FRET reads energy transfer from a long-lived donor to a nearby acceptor.

[3] abbreviates: efficacy at max dose, in relation to reference dual agonist T0901317.

Like-named read-outs stand apart in the source and are kept apart here.

As to `COCCN(C)C(=O)c1ccc(N2CCC(OC3CCN(C(=O)[C@](O)(c4ccccc4)C(F)(F)F)CC3)CC2)cc1Cl` [Example 4-14, 2-chloro-N-(2-methoxyethyl)-N-methyl-4-[4-({1-[(2R)-3,3,3-trifluoro-2-hydroxy-2-phenylpropanoyl]piperidin-4-yl}oxy)piperidin-1-yl]benzamide], the values for the Emax in assay [1] (setting [3]) and in assay [2] (setting [3]) were 88% and 42%, respectively. Moreover, the EC50 in assay [1] (read-out: LXR beta IP) was determined as 117 nM; in assay [2], 2170 nM.
Take `CN(Cc1ccon1)C(=O)c1ccc(N2CCC(OC3CCN(C(=O)[C@](O)(c4ccccc4)C(F)(F)F)CC3)CC2)cc1Cl` [Example 4-15, 2-chloro-N-(isoxazol-3-yl-methyl)-N-methyl-4-[4-({1-[(2R)-3,3,3-trifluoro-2-hydroxy-2-phenylpropanoyl]piperidin-4-yl}oxy)piperidin-1-yl]benzamide]: the values for the Emax in assay [1] (setting [3]) and in assay [2] (setting [3]) were 87% and 40%, respectively. In addition, the EC50 in assay [1] (read-out: LXR beta IP) was determined as 38 nM; in assay [2], 1300 nM.
The matching figures for `CN(C)CCNC(=O)c1ccc(N2CCC(CC3CCN(C(=O)[C@](O)(c4ccccc4)C(F)(F)F)CC3)CC2)cc1Cl` [Example 4-16, 2-chloro-N-[2-(dimethylamino)ethyl]-4-[4-({1-[(2R)-3,3,3-trifluoro-2-hydroxy-2-phenylpropanoyl]piperidin-4-yl}methyl)piperidin-1-yl]benzamide]: 64%, 28%, 183 nM and 688 nM.
The corresponding values for `O=C(c1ccc(N2CCC(CC3CCN(C(=O)[C@](O)(c4ccccc4)C(F)(F)F)CC3)CC2)cc1Cl)N1CCC(c2ccncc2)C1` (stereo partly drawn) [Example 4-17, (2R)-3-{4-[(1-{3-chloro-4-[(3-pyridin-4-ylpyrrolidin-1-yl)carbonyl]phenyl}piperidin-4-yl)methyl]piperidin-1-yl}-1,1,1-trifluoro-3-oxo-2-phenylpropan-2-ol] are 45%, 27%, 270 nM and 1020 nM.
The matching figures for `O=C(c1ccc(N2CCC(CC3CCN(C(=O)[C@](O)(c4ccccc4)C(F)(F)F)CC3)CC2)cc1Cl)N1CC[C@H](F)C1` [Example 4-18]: 67%, 39%, 59 nM and 485 nM.
For `O=C(c1ccc(N2CCC(CC3CCN(C(=O)[C@](O)(c4ccccc4)C(F)(F)F)CC3)CC2)cc1Cl)N1CCC(n2ccnc2)C1` (stereo partly drawn) [Example 4-19, (2R)-3-(4-{[1-(3-chloro-4-{[3-(1H-imidazol-1-yl)pyrrolidin-1-yl]carbonyl}phenyl)piperidin-4-yl]methyl}piperidin-1-yl)-1,1,1-trifluoro-3-oxo-2-phenylpropan-2-ol], the Emax in assay [1] (setting [3]) came out at 43%; in assay [2] (setting [3]), 25%. For the same compound, the EC50 worked out at 141 nM in assay [1] (read-out: LXR beta IP) and 765 nM in assay [2].
The corresponding values for `CN(Cc1cncs1)C(=O)c1ccc(N2CCC(CC3CCN(C(=O)[C@](O)(c4ccccc4)C(F)(F)F)CC3)CC2)cc1Cl` [Example 4-20, 2-chloro-N-methyl-N-(1,3-thiazol-5-ylmethyl)-4-[4-({1-[(2R)-3,3,3-trifluoro-2-hydroxy-2-phenylpropanoyl]piperidin-4-yl}methyl)piperidin-1-yl]benzamide] are 63%, 34%, 95 nM and 541 nM.
The matching figures for `O=C(c1ccc(N2CCC(CC3CCN(C(=O)[C@](O)(c4ccccc4)C(F)(F)F)CC3)CC2)cc1Cl)N1[C@H]2CC[C@@H]1CC2` [Example 4-21, (2R)-3-{4-[(1-{4-[(1s,4s)-7-aza-bicyclo[2.2.1]hept-7-ylcarbonyl]-3-chlorophenyl}piperidin-4-yl)methyl]piperidin-1-yl}-1,1,1-trifluoro-3-oxo-2-phenylpropan-2-ol]: 63%, 25%, 74 nM and 457 nM.
With `O=C(c1ccc(N2CCC(CC3CCN(C(=O)[C@](O)(c4cc(Cl)cc(Cl)c4)C(F)(F)F)CC3)CC2)cc1Cl)N1CC[C@@H](O)C1` [Example 4-22, (3R)-1-({2-chloro-4-[4-({1-[(2R)-2-(3,5-dichloro-phenyl)-3,3,3-trifluoro-2-hydroxypropanoyl]piperidin-4-yl}methyl)piperidin-1-yl]phenyl}carbonyl) pyrrolidin-3-ol], the Emax was 38% in assay [1] (setting [3]) and 0% in assay [2] (setting [3]). Also, the EC50 in assay [1] (read-out: LXR beta IP) is 35 nM. In assay [2], the “LXR alpha IP (nM)” value is on record as “NO IP”.
The corresponding values for `O=C(c1ccc(N2CCC(CC3CCN(C(=O)[C@](O)(c4cc(Cl)cc(Cl)c4)C(F)(F)F)CC3)CC2)cc1Cl)N1CCC[C@@H]1CO` [Example 4-23, (2R)-3-(4-{[1-(3-chloro-4-{[(2R)-2-(hydroxymethyl)pyrrolidin-1-yl]carbonyl}phenyl)piperidin-4-yl]methyl}piperidin-1-yl)-2-(3,5-dichlorophenyl)-1,1,1-trifluoro-3-oxopropan-2-ol] are 30%, 4%, 51 nM and “NO IP”.
The matching figures for `O=C(c1ccc(N2CCC(CC3CCN(C(=O)[C@](O)(c4cc(Cl)cc(Cl)c4)C(F)(F)F)CC3)CC2)cc1Cl)N1CCC[C@H]1CO` [Example 4-24, (2R)-3-(4-{[1-(3-chloro-4-{[(2S)-2-(hydroxymethyl)pyrrolidin-1-yl]carbonyl}phenyl)piperidin-4-yl]methyl}piperidin-1-yl)-2-(3,5-dichlorophenyl)-1,1,1-trifluoro-3-oxopropan-2-ol]: 28%, 0%, 7 nM and “NO IP”.
The matching figures for `CC(C)(C)OC(=O)NC1CN(C(=O)c2ccc(N3CCC(CC4CCN(C(=O)[C@](O)(c5cc(Cl)cc(Cl)c5)C(F)(F)F)CC4)CC3)cc2Cl)C1` [Example 4-25, tert-butyl [1-({2-chloro-4-[4-({1-[(2R)-2-(3,5-dichlorophenyl)-3,3,3-trifluoro-2-hydroxypropanoyl]piperidin-4-yl}methyl)piperidin-1-yl]phenyl}carbonyl)azetidin-3-yl]carbamate]: 40%, 0%, 3 nM and “NO IP”.
With `CN(CCn1cncn1)C(=O)c1ccc(N2CCC(CC3CCN(C(=O)[C@](O)(c4cc(Cl)cc(Cl)c4)C(F)(F)F)CC3)CC2)cc1Cl` [Example 4-26, 2-chloro-4-[4-({1-[(2R)-2-(3,5-dichlorophenyl)-3,3,3-trifuoro-2-hydroxypropanoyl]piperidin-4-yl}methyl)piperidin-1-yl]-N-methyl-N-[2-(1H-1,2,4-triazol-1-yl)ethyl]benzamide], the Emax in assay [1] (setting [3]) amounted to 67%; in assay [2] (setting [3]), 3%. The EC50 in assay [1] (read-out: LXR beta IP) is 4 nM. The “LXR alpha IP (nM)” value in assay [2] is recorded as “NO IP”.
Turning to `COc1cccc([C@@](O)(C(=O)N2CCC(C(=O)N3CCN(c4ccc(C(=O)N(C)C)c(Cl)c4)CC3)CC2)C(F)(F)F)c1` [Example 5-1, (R)-2-chloro-N,N-dimethyl-4-(4-(1-(3,3,3-trifluoro-2-hydroxy-2-(3-methoxyphenyl)propanoyl)piperidine-4-carbonyl)piperazin-1-yl)benzamide], the EC50 in assay [1] (LXR beta IP (nM)) was found to be 12400 nM. In assay [1], the Emax amounted to 31%. Besides, in assay [2], the “LXR alpha IP (nM)” value is listed as “NO IP” and the Emax came to 5%.
`CN(C)C(=O)c1ccc(N2CCN(CC3CCN(C(=O)[C@](O)(c4ccccc4)C(F)(F)F)CC3)CC2)cc1Cl` [Example 6-1, 2-chloro-N,N-dimethyl-4-[4-({1-[(2R)-3,3,3-trifluoro-2-hydroxy-2-phenylpropanoyl]piperidin-4-yl}methyl)piperazin-1-yl]benzamide]: the EC50 in assay [1] (read-out: LXR beta IP) turned out to be 84 nM; in assay [2] it was 9030 nM. Further, the Emax in assay [1] amounted to 60%; in assay [2] (setting [3]), 29%.
Consider `CN(C)C(=O)c1ccc(N2CCCN(CC3CCN(C(=O)C(O)(c4cccc(Cl)c4)C(F)(F)F)CC3)CC2)cc1Cl` (stereo not shown) [Example 6-2, 2-chloro-4-[4-({1-[2-(3-chlorophenyl)-3,3,3-trifluoro-2-hydroxypropanoyl]piperidin-4-yl}methyl)-1,4-diazepan-1-yl]-N,N-dimethylbenzamide], for which the values for the Emax in assay [1] (setting [3]) and in assay [2] (setting [3]) were 98% and 14%, respectively. In addition, the EC50 in assay [1] (read-out: LXR beta IP) came out at 533 nM. Moreover, the “LXR alpha IP (nM)” value in assay [2] is “NO IP”.
